{
  "source": "patent US8778964B2",
  "about": "“Hydroxy-substituted imidazo[1,2-a]-pyridinecarboxamides and their use” (Bayer Pharma Aktiengesellschaft, priority 2012, dated 2014)",
  "note": "Where a name gives a salt, the structure may show the parent alone.",
  "data": [
    {"tested_on": "recombinant guanylate cyclase reporter cell line", "experiment": "Action on recombinant guanylate cyclase reporter cell line (MEC)", "assay_type": "cell-based", "conditions": "in some cases mean values obtained from individual determinations", "how_it_was_run": "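Cell-based reporter assay with recombinant guanylate cyclase expressed in a reporter cell line, per a published method. Activity reported as minimal effective concentration (MEC), in some cases as the mean of individual determinations.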", "units": {"minimal effective concentration": "µM"}, "values": [
      {"molecule": "Cc1nc2c(OCc3c(F)cccc3F)cccn2c1C(=O)NC(C)C(O)C(F)(F)F", "note": "(single isomer, unassigned) [Example 145, 8-[(2,6-Difluorobenzyl)oxy]-2-methyl-N-(4,4,4-trifluoro-3-hydroxybutan-2-yl)imidazo[1,2-a]-pyridine-3-carboxamide]", "minimal effective concentration": ">10"},
      {"molecule": "CCCC[C@H](CO)NC(=O)c1cnc2c(OCc3c(F)cccc3F)cccn12", "note": "[Example 62, 8-[(2,6-difluorobenzyl)oxy]-N-[(2R)-1-hydroxyhexan-2-yl]imidazo[1,2-a]pyridine-3-carboxamide]", "minimal effective concentration": 0.3},
      {"molecule": "Cc1nc2c(OCc3c(F)cccc3F)cccn2c1C(=O)NC(CCCC(F)(F)F)C(C)(C)O", "note": "(racemic) [Example 150, rac-8-[(2,6-difluorobenzyl)oxy]-2-methyl-N-(7,7,7-trifluoro-2-hydroxy-2-methylheptan-3-yl)imidazo[1,2-a]pyridine-3-carboxamide]", "minimal effective concentration": 0.03},
      {"molecule": "Cc1nc2c(OCc3c(F)cccc3F)cccn2c1C(=O)N[C@@H](CO)CC(C)C", "note": "[Example 39, 8-[(2,6-Difluorobenzyl)oxy]-N-[(2R)-1-hydroxy-4-methylpentan-2-yl]-2-methylimidazo[1,2-a]-pyridine-3-carboxamide]", "minimal effective concentration": 0.03},
      {"molecule": "CCCC[C@H](CO)NC(=O)c1c(C)nc2c(OCCC(C(F)(F)F)C(F)(F)F)cc(C)cn12", "note": "[Example 169, N-[(2R)-1-Hydroxyhexan-2-yl]-2,6-dimethyl-8-[4,4,4-trifluoro-3-(trifluoromethyl)butoxy]imidazo-[1,2-a]pyridine-3-carboxamide]", "minimal effective concentration": 0.3},
      {"molecule": "CCCC[C@H](CO)NC(=O)c1c(C)nc2c(OCc3c(C)cccc3C)cccn12", "note": "[Example 13, 8-[(2,6-dimethylbenzyl)oxy]-N-[(2R)-1-hydroxyhexan-2-yl]-2-methylimidazo[1,2-a]pyridine-3-carboxamide]", "minimal effective concentration": 3},
      {"molecule": "Cc1nc2c(OCC3CCCCC3)cccn2c1C(=O)NC(C)(C)C(C)O", "note": "(centres unmarked) [Example 87, 8-(cyclohexylmethoxy)-N-(3-hydroxy-2-methylbutan-2-yl)-2-methylimidazo[1,2-a]pyridine-3-carboxamide]", "minimal effective concentration": 1},
      {"molecule": "Cc1cc(OCCC(C(F)(F)F)C(F)(F)F)c2nc(C)c(C(=O)NCC(O)c3ccc(Cl)cc3)n2c1", "note": "(racemic) [Example 175, rac-N-[2-(4-chlorophenyl)-2-hydroxyethyl]-2,6-dimethyl-8-[4,4,4-trifluoro-3-(trifluoromethyl)butoxy]imidazo[1,2-a]pyridine-3-carboxamide]", "minimal effective concentration": 3},
      {"molecule": "CCCC[C@H](CO)NC(=O)c1c(C)nc2c(OCc3c(F)cccc3F)cc(C)cn12", "note": "[Example 133, 8-[(2,6-difluorobenzyl)oxy]-N-[(2R)-1-hydroxyhexan-2-yl]-2,6-dimethylimidazo[1,2-a]pyridine-3-carboxamide]", "minimal effective concentration": 0.01},
      {"molecule": "CCCC[C@@H](NC(=O)c1c(C)nc2c(OCc3c(F)cccc3F)cccn12)C(O)C(F)(F)F", "note": "(stereo partly drawn) [Example 142, 8-[(2,6-Difluorobenzyl)oxy]-2-methyl-N-[(3R)-1,1,1-trifluoro-2-hydroxyheptan-3-yl]imidazo[1,2-a]pyridine-3-carboxamide]", "minimal effective concentration": 0.1},
      {"molecule": "CCCC[C@@H](NC(=O)c1c(C)nc2c(OCc3c(F)cccc3F)cccn12)C(O)C(F)(F)F", "note": "(stereo partly drawn) [Example 141, 8-[(2,6-Difluorobenzyl)oxy]-2-methyl-N-[(3R)-1,1,1-trifluoro-2-hydroxyheptan-3-yl]imidazo[1,2-a]pyridine-3-carboxamide]", "minimal effective concentration": 0.1},
      {"molecule": "Cc1nc2c(OCc3c(F)cccc3F)cccn2c1C(=O)N[C@@H](CO)Cc1ccccc1", "note": "[Example 38, 8-[(2,6-difluorobenzyl)oxy]-N-[(2R)-1-hydroxy-3-phenylpropan-2-yl]-2-methylimidazo[1,2-a]-pyridine-3-carboxamide]", "minimal effective concentration": 0.3},
      {"molecule": "Cc1nc2c(OCc3c(F)cccc3F)cccn2c1C(=O)NC(CO)CCCC(F)(F)F", "note": "(racemic) [Example 114, rac-8-[(2,6-difluorobenzyl)oxy]-2-methyl-N(6,6,6-trifluoro-1-hydroxyhexan-2-yl)imidazo[1,2-a]pyridine-3-carboxamide]", "minimal effective concentration": 0.03},
      {"molecule": "Cc1nc2c(OCc3c(F)cccc3F)cccn2c1C(=O)NC(CCC(F)(F)F)C(C)(C)O", "note": "(racemic) [Example 149, rac-8-[(2,6-difluorobenzyl)oxy]-2-methyl-N-(6,6,6-trifluoro-2-hydroxy-2-methylhexan-3-yl)imidazo[1,2-a]pyridine-3-carboxamide]", "minimal effective concentration": 0.1},
      {"molecule": "CC[C@H](CO)NC(=O)c1c(C)nc2c(OCc3cccc(Cl)c3Cl)cccn12", "note": "[Example 45, 8-[(2,3-dichlorobenzyl)oxy]-N-[(2R)-1-hydroxybutan-2-yl]-2-methylimidazo[1,2-a]-pyridine-3-carboxamide]", "minimal effective concentration": 0.65},
      {"molecule": "Cc1cc(OCCC(C(F)(F)F)C(F)(F)F)c2nc(C)c(C(=O)NC3c4ccccc4CC3O)n2c1", "note": "(centres unmarked) [Example 172, N-(2-Hydroxy-2,3-dihydro-1H-inden-1-yl)-2,6-dimethyl-8-[4,4,4-trifluoro-3-(trifluoromethyl)-butoxy]imidazo[1,2-a]pyridine-3-carboxamide]", "minimal effective concentration": 1},
      {"molecule": "CC[C@H](CO)NC(=O)c1c(C)nc2c(OCc3c(F)cccc3F)cccn12", "note": "[Example 43, 8-[(2,6-Difluorobenzyl)oxy]-N-[(2R)-1-hydroxybutan-2-yl]-2-methylimidazo[1,2-a]pyridine-3-carboxamide]", "minimal effective concentration": 0.16},
      {"molecule": "Cc1nc2c(OCc3c(F)cccc3F)cccn2c1C(=O)NCC(C)(C)CO", "note": "[Example 41, 8-[(2,6-difluorobenzyl)oxy]-N-(3-hydroxy-2,2-dimethylpropyl)-2-methylimidazo[1,2-a]-pyridine-3-carboxamide]", "minimal effective concentration": 3},
      {"molecule": "Cc1nc2c(OCc3c(F)cccc3F)cccn2c1C(=O)NCCC1(O)CCCCC1", "note": "[Example 116, 8-[(2,6-difluorobenzyl)oxy]-N-[2-(1-hydroxycyclohexyl)ethyl]-2-methylimidazo[1,2-a]pyridine-3-carboxamide]", "minimal effective concentration": 0.3},
      {"molecule": "Cc1nc2c(OCc3c(F)cccc3F)cc(Cl)cn2c1C(=O)N[C@@H](CO)CCCO", "note": "[Example 127, 6-Chloro-8-[(2,6-difluorobenzyl)oxy]-N-[(2R)-1,5-dihydroxypentan-2-yl]-2-methylimidazo[1,2-a]-pyridine-3-carboxamide]", "minimal effective concentration": 0.3},
      {"molecule": "Cc1nc2c(OCc3c(F)cccc3F)cccn2c1C(=O)NC(c1ccc(F)cc1)C(C)(C)O", "note": "(racemic) [Example 152, rac-8-[(2,6-difluorobenzyl)oxy]-N-[1-(4-fluorophenyl)-2-hydroxy-2-methylpropyl]-2-methylimidazo[1,2-a]pyridine-3-carboxamide]", "minimal effective concentration": 0.3},
      {"molecule": "Cc1nc2c(OCc3c(F)cccc3F)cccn2c1C(=O)NCCC(C)(C)O", "note": "[Example 153, 8-[(2,6-difluorobenzyl)oxy]-N-(3-hydroxy-3-methylbutyl)-2-methylimidazo[1,2-a]pyridine-3-carboxamide]", "minimal effective concentration": 0.3},
      {"molecule": "Cc1nc2c(OCc3c(F)cccc3F)cccn2c1C(=O)N[C@@H]1CCC[C@H]1O", "note": "[Example 36, 8-[(2,6-difluorobenzyl)oxy]-N-[(1R,2R)-2-hydroxycyclopentyl]-2-methylimidazo[1,2-a]-pyridine-3-carboxamide]", "minimal effective concentration": 0.1},
      {"molecule": "CC[C@H](CO)NC(=O)c1c(C)nc2c(OCc3cccc(F)c3F)cccn12", "note": "[Example 44, 8-[(2,3-difluorobenzyl)oxy]-N-[(2R)-1-hydroxybutan-2-yl]-2-methylimidazo[1,2-a]-pyridine-3-carboxamide]", "minimal effective concentration": 0.3},
      {"molecule": "CCOCC(CO)NC(=O)c1c(C)nc2c(OCc3c(F)cccc3F)cccn12", "note": "(single isomer, unassigned; ent-8) [Example 161, ent-8-[(2,6-Difluorobenzyl)oxy]-N-(1-ethoxy-3-hydroxypropan-2-yl)-2-methylimidazo[1,2-a]-pyridine-3-carboxamide (enantiomer A)]", "minimal effective concentration": 1},
      {"molecule": "Cc1nc2c(OCC3CCCCC3)cccn2c1C(=O)N[C@@H]1CCCC[C@H]1O", "note": "(racemic) [Example 78, (rac)-8-(cyclohexylmethoxy)-N-[(trans)-2-hydroxycyclohexyl]-2-methylimidazo[1,2-a]-pyridine-3-carboxamide]", "minimal effective concentration": 0.3},
      {"molecule": "CC[C@@H](CO)NC(=O)c1c(C)nc2c(OCC3CCCCC3)cccn12", "note": "[Example 88, 8-(cyclohexylmethoxy)-N-[(2S)-1-hydroxybutan-2-yl]-2-methylimidazo[1,2-a]pyridine-3-carboxamide]", "minimal effective concentration": 1},
      {"molecule": "CCCC[C@H](CO)NC(=O)c1c(C)nc2c(OCc3c(F)cccc3F)cc(N3CCOCC3)cn12", "note": "[Example 63, 8-[(2,6-difluorobenzyl)oxy]-N-[(2R)-1-hydroxyhexan-2-yl]-2-methyl-6-(morpholin-4-yl)imidazo[1,2-a]pyridine-3-carboxamide]", "minimal effective concentration": 3},
      {"molecule": "Cc1cc(OCCC(C(F)(F)F)C(F)(F)F)c2nc(C)c(C(=O)NC(CCCC(F)(F)F)C(C)(C)O)n2c1", "note": "(racemic) [Example 170, rac-2,6-Dimethyl-N-(7,7,7-trifluoro-2-hydroxy-2-methylheptan-3-yl)-8-[4,4,4-trifluoro-3-(trifluoromethyl)butoxy]imidazo[1,2-a]pyridine-3-carboxamide]", "minimal effective concentration": 3},
      {"molecule": "Cc1nc2c(OCc3c(F)cccc3F)cccn2c1C(=O)N[C@H]1CCC[C@@H]1O", "note": "[Example 19, 8-[(2,6-difluorobenzyl)oxy]-N-[(1S,2S)-2-hydroxycyclopentyl]-2-methylimidazo[1,2-a]-pyridine-3-carboxamide]", "minimal effective concentration": 1},
      {"molecule": "Cc1nc2c(OCc3c(F)cccc3F)cccn2c1C(=O)NCCOCCO", "note": "[Example 24, 8-[(2,6-difluorobenzyl)oxy]-N-[2-(2-hydroxy-ethoxy)ethyl]-2-methylimidazo[1,2-a]pyridine-3-carboxamide]", "minimal effective concentration": 1},
      {"molecule": "CCC(CO)NC(=O)c1c(C)nc2c(OCC3CCCCC3)cccn12", "note": "(racemic) [Example 69, (rac)-8-(cyclohexylmethoxy)-N-(1-hydroxybutan-2-yl)-2-methylimidazo[1,2-a]pyridine-3-carboxamide formate]", "minimal effective concentration": 0.1}
    ]}
  ]
}
